Data as given in patent publication EP0212822A1, “A composition containing a plant growth regulator and an alkanol and a method of using the same” (ICI AMERICAS INC., priority 1985, dated 1987).

Experiments:
Water Oak = assay: Trunk injection, holes at 4 inch intervals, Retardation and Uniformity Ratings; type: in vivo, Quercus nigra (Water Oak); parameters: key to Uniformity Rating (U): 0 = no effect from PGR; 1 = poor; 2 = fair; 3 = acceptable; 4 = very good; 5 = excellent; conditions: 38 ml/hole
Method: (§1) The examples which follow exemplify the improvements obtained by this invention. However, these examples are not intended to limit the scope of the invention. In Examples 1-41, the subject trees were injected at a distance approximately one foot from the soil line by drilling 7/32 inch diameter holes to a 2 inch depth at a 30-45° angle tangential to the trunk with a pressure injector (150 psi) purchased from the Asplundh Tree Expert Co., Company No. 346-3502. The results are expressed in terms of Retardation and Uniformity Ratings. The Retardation rating scale is as follows: • 0 = no retardataion • 1 = 1-20% retardation • 2 = 21-40% retardation • 3 = 41-60% retardation • 4 = 61-80% retardation • 5 = 81-100% retardation
(§2) The Uniformity Rating is a measure of the consistency of response to the treatment between different branches of the tree. The Uniformity scale employed is as follows: • 0 = no effect from PGR • 1 = poor • 2 = fair • 3 = acceptable • 4 = very good • 5 = excellent
10 (0.034 moles), 20 (0.068 moles) and 40 grams (0.136 moles) of (2RS, 3RS)-1-(4-chlorophenyl)-4,4-dimethyl-2-l,2,4-triazol-l-yl)pentan-3-ol (PGR) were dissolved in 1,1 and 1 liter, respectively, of methanol at room temperature and was stirred until the solution was clear, approximately 20 to 60 minutes. In these examples, the injection holes were placed at approximate 4 inch intervals.

[1] = Absorption kinetics: binding of 14C-labelled compound to sawdust; type: physicochemical, Betula pendula-Roth (Birch); conditions: for µg in solution: 2 gm sawdust, 20 ml water, 10 mg/l 14C (II)
Method: This example illustrates the binding (absorption) properties of the PGR of this invention to wood of the-conducting tissue of Betula pendula-Roth (Birch). The compounds of this invention preferably show partial and reversible binding which enhances the slow release effect by initial precipitation in the trunk. Sawdust samples were obtained from the outer wood of freshly cut, debarked logs. 2 gm samples of sawdust were shaken with 20 ml water containing ^14C triazole-labelled (II) at a concentration of 10 mg 1^-1. At intervals, the aqueous phase was subsampled, and the concentration of (II) determined by scintillation counting. A decrease in concentration reflects binding to the wood, expressed as kd (ratio of chemical bound to wood:chemical in solution).

Malus communis (Apple) = assay: Trunk injection, percent of growth based upon a control; type: in vivo; conditions: 35 days after treatment
Method: as §1
(2RS, 3RS)-1-(4-chlorophenyl-4,4-dimethyl-2,-1,2,4-triazol-1-yl)pentan-3-ol (PGR) was dissolved in 1 liter of solvent at room temperature and the resulting solution was stirred until clear, approximately 20 to 30 minutes. Two equal aliquots of the resulting solution were injected into two injection holes of the trunk of Malus communis (Apple) having a trunk diameter at the point of injection approximately 4 to 5 inches. The injection holes were approximately 12 inches above the soil surface. The percent of growth, based upon a control, was measured 35 days after treatment.

Siberian Elm = assay: Trunk injection of trees (Brown method), Retardation and Uniformity Ratings; type: in vivo, Ulmus pumila (Siberian Elm); parameters: key to Uniformity Rating (U): 0 = no effect from PGR; 1 = poor; 2 = fair; 3 = acceptable; 4 = very good; 5 = excellent; conditions: 10 g (II) in 1 liter methanol
Method: A method of tree injection and apparatus employed herein is discussed in G. K. Brown, "Prototype Equipment for Commercial Pressure - Injection of Aqueous Growth Regulators Into Trees," Journal of Arboriculture, Vol. 4, pp. 7-13, 1978, and in the references noted therein. Under the Brown method the number of injection holes and total injection volume (TIV) of PGR solution is determined by measuring the diameter of the tree at DBH and using the following formulae: […]
as §1, §2
10 (0.034 moles) grams of (2RS,3RS)-1-(4-chlorophenyl)-4,4-dimethyl-2-1,2,4-triazol-1-yl)pen- tan-3-ol (II) of the formula [drawing 41] was dissolved in 1 liter of methanol at room temperature and was stirred until the solution was clear, approximately 20 minutes.
In these examples, the number of injection holes, volume per injection hole and total injection volume in ml was determined from the DBH in accordance' with the Brown method.

[2] = week 24, 10 g PGR in 1 liter methanol
[3] = week 56, 10 g PGR in 1 liter methanol
[4] = week 14 after treatment, listed as 1, 12 in. DBH tree, 229 ml per tree
[5] = week 14 after treatment, listed as 2, 17 in. DBH tree, 432 ml per tree
[6] = week 14 after treatment, listed as 3, 13 in. DBH tree, 268 ml per tree
[7] = week 14 after treatment, listed as 4, 11 in. DBH tree, 192 ml per tree
[8] = week 14 after treatment, listed as 5, 15 in. DBH tree, 119 ml per tree
[9] = week 14 after treatment, listed as 6, 11 in. DBH tree, 192 ml per tree
[10] = week 67 after treatment, listed as 1, 12 in. DBH tree, 229 ml per tree
[11] = week 67 after treatment, listed as 2, 17 in. DBH tree, 432 ml per tree
[12] = week 67 after treatment, listed as 3, 13 in. DBH tree, 268 ml per tree
[13] = week 67 after treatment, listed as 4, 11 in. DBH tree, 192 ml per tree
[14] = week 67 after treatment, listed as 5, 15 in. DBH tree, 119 ml per tree
[15] = week 67 after treatment, listed as 6, 11 in. DBH tree, 192 ml per tree

CC(C)(C)[C@@H](O)[C@@H](Cc1ccc(Cl)cc1)n1cncn1 (racemic) [Formula (II), (2RS,3RS)-1-(4-chlorophenyl-4,4-dimethyl-2-1,2,4-triazol-1-yl)pentan-3-ol]
Retardation Rating (R) (Water Oak; [2]): 5 (5 = 81-100% retardation)
Uniformity Rating (U) (Water Oak; [2]): 5
Retardation Rating (R) (Water Oak; [3]): 5 (5 = 81-100% retardation)
Uniformity Rating (U) (Water Oak; [3]): 5
µg in solution ([1]; 0 hours): 200 µg
kd (ratio of chemical bound to wood:chemical in solution) ([1]; 0.5 hours): 0.7
µg in solution ([1]; 0.5 hours): 116 µg
kd (ratio of chemical bound to wood:chemical in solution) ([1]; 1 hour): 1.4
µg in solution ([1]; 1 hour): 84 µg
kd (ratio of chemical bound to wood:chemical in solution) ([1]; 2 hours): 1.5
µg in solution ([1]; 2 hours): 81 µg
kd (ratio of chemical bound to wood:chemical in solution) ([1]; 4 hours): 1.7
µg in solution ([1]; 4 hours): 75 µg
kd (ratio of chemical bound to wood:chemical in solution) ([1]; 8 hours): 1.8
µg in solution ([1]; 8 hours): 72 µg
kd (ratio of chemical bound to wood:chemical in solution) ([1]; 24 hours): 1.7
µg in solution ([1]; 24 hours): 74 µg
kd (ratio of chemical bound to wood:chemical in solution) ([1]; 48 hours): 1.8
µg in solution ([1]; 48 hours): 76 µg
Growth, % of Control (Malus communis (Apple); 2 g PGR in 1 liter Water, total inj. vol. not given): 84 % of Control
Growth, % of Control (Malus communis (Apple); 2.5 g PGR in 1 liter Ethanol, total inj. vol. 200 ml): 58 % of Control
Growth, % of Control (Malus communis (Apple); 5 g PGR in 1 liter Ethanol, total inj. vol. 100 ml): 59 % of Control
Growth, % of Control (Malus communis (Apple); 5 g PGR in 1 liter Ethanol, total inj. vol. 200 ml): 58 % of Control
Growth, % of Control (Malus communis (Apple); 10 g PGR in 1 liter Ethanol, total inj. vol. 50 ml): 70 % of Control
Growth, % of Control (Malus communis (Apple); 10 g PGR in 1 liter Ethanol, total inj. vol. 100 ml): 76 % of Control
Growth, % of Control (Malus communis (Apple); 10 g PGR in 1 liter Ethanol, total inj. vol. 200 ml): 56 % of Control
Growth, % of Control (Malus communis (Apple); 10 g PGR in 1 liter Methanol, total inj. vol. 200 ml): 59 % of Control
Growth, % of Control (Malus communis (Apple); 10 g PGR in 1 liter Water, total inj. vol. 50 ml): 100 % of Control
Growth, % of Control (Malus communis (Apple); 10 g PGR in 1 liter Water, total inj. vol. 100 ml): 103 % of Control
Growth, % of Control (Malus communis (Apple); 20 g PGR in 1 liter Ethanol, total inj. vol. 25 ml): 79 % of Control
Growth, % of Control (Malus communis (Apple); 20 g PGR in 1 liter Ethanol, total inj. vol. 50 ml): 82 % of Control
Growth, % of Control (Malus communis (Apple); 20 g PGR in 1 liter Ethanol, total inj. vol. 100 ml): 60 % of Control
Growth, % of Control (Malus communis (Apple); 20 g PGR in 1 liter Methanol, total inj. vol. 100 ml): 60 % of Control
Growth, % of Control (Malus communis (Apple); 40 g PGR in 1 liter Ethanol, total inj. vol. 25 ml): 77 % of Control
Growth, % of Control (Malus communis (Apple); 40 g PGR in 1 liter Ethanol, total inj. vol. 50 ml): 72 % of Control
Growth, % of Control (Malus communis (Apple); 40 g PGR in 1 liter Methanol, total inj. vol. 50 ml): 76 % of Control
Growth, % of Control (Malus communis (Apple); 40 g PGR in 1 liter Methanol, total inj. vol. 100 ml): 52 % of Control
Growth, % of Control (Malus communis (Apple); 50 g PGR in 1 liter Ethanol, total inj. vol. 10 ml): 90 % of Control
Growth, % of Control (Malus communis (Apple); 80 g PGR in 1 liter Methanol, total inj. vol. 25 ml): 68 % of Control
Retardation Rating (R) (Siberian Elm; [4]): 3 (3 = 41-60% retardation)
Uniformity Rating (U) (Siberian Elm; [4]): 4
Retardation Rating (R) (Siberian Elm; [5]): 3 (3 = 41-60% retardation)
Uniformity Rating (U) (Siberian Elm; [5]): 3
Retardation Rating (R) (Siberian Elm; [6]): 4 (4 = 61-80% retardation)
Uniformity Rating (U) (Siberian Elm; [6]): 4
Retardation Rating (R) (Siberian Elm; [7]): 4 (4 = 61-80% retardation)
Uniformity Rating (U) (Siberian Elm; [7]): 4
Retardation Rating (R) (Siberian Elm; [8]): 3 (3 = 41-60% retardation)
Uniformity Rating (U) (Siberian Elm; [8]): 5
Retardation Rating (R) (Siberian Elm; [9]): 3 (3 = 41-60% retardation)
Uniformity Rating (U) (Siberian Elm; [9]): 4
Retardation Rating (R) (Siberian Elm; [10]): 5 (5 = 81-100% retardation)
Uniformity Rating (U) (Siberian Elm; [10]): 5
Retardation Rating (R) (Siberian Elm; [11]): 4 (4 = 61-80% retardation)
Uniformity Rating (U) (Siberian Elm; [11]): 3
Retardation Rating (R) (Siberian Elm; [12]): 4 (4 = 61-80% retardation)
Uniformity Rating (U) (Siberian Elm; [12]): 4
Retardation Rating (R) (Siberian Elm; [13]): 5 (5 = 81-100% retardation)
Uniformity Rating (U) (Siberian Elm; [13]): 5
Retardation Rating (R) (Siberian Elm; [14]): 5 (5 = 81-100% retardation)
Uniformity Rating (U) (Siberian Elm; [14]): 5
Retardation Rating (R) (Siberian Elm; [15]): 5 (5 = 81-100% retardation)
Uniformity Rating (U) (Siberian Elm; [15]): 5
